In patent US5654299A, “Aryl substituted heterocycles” (Zeneca Limited, priority 1993, dated 1997):
Values joined by “and” are separate entries in the source; they are usually repeats but may differ in a detail not shown here. Identical values can stand only once. Counter-ions that a name gives are not always drawn. Like-named read-outs stand apart in the source and are kept apart here.

Experiments:
human NK2 receptor = molecular target: T1, human NK2 receptor (Homo sapiens, UniProt P21452); assay: Neurokinin A (NKA) Receptor-binding Assay (Test A), 3H-NKA binding to MEL cell membranes (MELM)
T1 sequence (P21452 1-398): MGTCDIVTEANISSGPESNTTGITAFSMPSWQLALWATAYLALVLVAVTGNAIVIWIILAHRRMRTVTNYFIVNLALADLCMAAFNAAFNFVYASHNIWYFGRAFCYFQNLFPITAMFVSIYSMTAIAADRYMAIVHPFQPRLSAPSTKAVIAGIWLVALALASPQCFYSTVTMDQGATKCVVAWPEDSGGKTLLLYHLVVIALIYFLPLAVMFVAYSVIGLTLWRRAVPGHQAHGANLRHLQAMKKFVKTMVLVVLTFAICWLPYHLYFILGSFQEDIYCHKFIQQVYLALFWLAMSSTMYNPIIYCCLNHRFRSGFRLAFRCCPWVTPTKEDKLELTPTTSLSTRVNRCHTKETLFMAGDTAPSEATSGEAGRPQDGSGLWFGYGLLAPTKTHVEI

guinea pig trachea = molecular target: T2, guinea pig trachea (Cavia porcellus, UniProt Q64077); assay: Guinea Pig Trachea Assay (Test B), antagonism of NKA or [β-ala^8]-NKA(4-10); assay type: cell-based; conditions: for Kb: guinea pig trachea, apparent dissociation constant, -log molar KB
T2 sequence (Q64077 1-402): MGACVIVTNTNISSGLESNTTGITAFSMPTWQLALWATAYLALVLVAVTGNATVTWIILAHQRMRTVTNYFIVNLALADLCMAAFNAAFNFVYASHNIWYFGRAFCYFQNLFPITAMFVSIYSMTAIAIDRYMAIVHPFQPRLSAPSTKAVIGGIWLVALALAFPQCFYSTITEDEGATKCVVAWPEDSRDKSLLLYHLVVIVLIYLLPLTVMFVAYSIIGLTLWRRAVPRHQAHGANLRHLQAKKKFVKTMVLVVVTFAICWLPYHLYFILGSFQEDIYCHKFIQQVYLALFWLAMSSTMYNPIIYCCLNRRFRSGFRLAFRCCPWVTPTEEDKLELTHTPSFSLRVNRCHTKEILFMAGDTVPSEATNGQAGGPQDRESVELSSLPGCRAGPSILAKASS

NK2 receptor = assay: Guinea Pig Labored Abdominal Breathing (Dyspnea) Assay (Test C), [β-ala^8]-NKA(4-10) aerosol; assay type: in vivo; conditions: 5 μmol/kg p.o., 120 min prior
Description: Guinea Pig Labored Abdominal Breathing (Dyspnea) Assay (Test C)
Using the clear plastic chamber described previously by Snyder et al. to secure guinea pigs for a head-only aerosol exposure to bronchoconstrictor agonists, agonist is administered by aerosol to six conscious guinea pigs simultaneously during each maneuver. The tachykinin NK2-selective agonist, [β-ala^8 ]-NKA(4-10), 3×10^-5 M, is aerosolized from a Devilhiss Model 25 ultrasonic nebulizer into an air stream entering the chamber at a rate of 2 L/minute.
Guinea pigs (275-400 g) are fasted for approximately 16 hours prior to experimentation. Compounds to be evaluated for blockade of effects of [β-ala^8 ]-NKA(4-10) or their vehicle (10% PEG400 in saline) are administered p.o. or i.v. at various times before aerosol agonist challenge. All animals are pretreated with atropine (10 mg/kg, i.p., 45 minutes pretreatment) indomethacin (10 mg/kg, i.p., 30 minutes pretreatment), propranolol (5 mg/kg, i.p., 30 minutes pretreatment), and thiorphan (1 mg/ml aerosol for 5 minutes, 15 minutes pretreatment).
Aerosol challenge with the agonist produces an initial increase in respiratory rate followed by a decrease with early signs of minor involvement of the abdominal muscles. The respiratory rate decreases further and the breathing becomes more labored with greater involvement of the abdominal muscles as exposure continues. The distinctly recognizable end point is the point where the breathing pattern of the guinea pig is consistently slow, deep, and deliberate, showing marked involvement of the abdominal muscles. Time, in seconds, from the onset of aerosol challenge to this end point is determined for each animal by using a stopwatch. […] Antagonists result in an increase in the time to reach the end point. Animals receive the aerosol administration of agonist for a maximum time of 780 seconds.
Differences between drug treated groups and corresponding vehicle treated control groups are compared using Student's t-test for unpaired observations.

[1] = system: NKA receptor from rat duodenum membranes; conditions: Edmonds-Alt (1993), cited from earlier work; for Ki: rat duodenum membranes, read-out: inhibition constant (Ki), [125I]-NKA binding
neurokinin receptors = conditions: EPA 559538; cited from earlier work
[2] = read-out: pKB (Test B) (converted)

Structure (SMILES) | Ki (human NK2 receptor; read-out: Ki (Test A)) [nM] | Kb (guinea pig trachea; [2]) | number fully protected/total number tested (Test C) (NK2 receptor) | percent protection (Test C) (NK2 receptor) [%] | other results
CN(CC(CCN1CC[C@H](c2ccccc2)[C@@H](O)C1)c1ccc(Cl)c(Cl)c1)C(=O)c1ccccc1 (relative stereo) [Example 10, N-[2-(3,4-Dichlorophenyl)-4-[(3R*,4R*)-3-hydroxy-4-phenylpiperidino]butyl-N-methylbenzamide hydrochloride] | 13 | 10 nM |  |  | 
CN(CC(CCN1CCC(c2ccccc2)CC1)c1ccc(Cl)c(Cl)c1)C(=O)c1ccccc1.Cl (centres unmarked) [Example 1, N-[2-(3,4-Dichlorophenyl)-4-(4-phenylpiperidino)butyl]-N-methylbenzamide hydrochloride] | 2.6 | 10 nM and 6.31 nM | 0/6 | 17 | NK2 antagonism in words, Test A (human NK2 receptor; in vitro screen Test A): potent NK2 antagonist; NK2 antagonism in words, Test B (guinea pig trachea; functional assay Test B): potent NK2 antagonist; biological activity of the benzamide in words [1]: lack of biological activity; Ki [1]: > 100 nM
COc1ccccc1C1CCN(CCC(CN(C)C(=O)c2ccccc2)c2ccc(Cl)c(Cl)c2)CC1 (centres unmarked) [Example 2, N-[2-(3,4-Dichlorophenyl)-4-[4-(2-methoxyphenyl)piperidino]butyl]-N-methylbenzamide hydrochloride] | 9 | 5.01 nM |  |  | 
CN(CC(CCN1CCC(c2ccccc2O)CC1)c1ccc(Cl)c(Cl)c1)C(=O)c1ccccc1 (centres unmarked) [Example 6, N-[2-(3,4-Dichlorophenyl)-4-[4-(2-hydroxyphenyl)piperidino]butyl]-N-methylbenzamide hydrochloride] | 2.8 | 3.16 nM |  |  | 
Cc1nnc(C2CCN(CCC(CN(C)C(=O)c3ccccc3)c3ccc(Cl)c(Cl)c3)CC2)o1 (centres unmarked) [Example 7, N-[2-(3,4-Dichlorophenyl)-4-[4-(5-methyl-1,3,4-oxadiazol-2-yl)piperidino]butyl]-N-methylbenzamide hydrochloride] | 21.1 | 79.4 nM |  |  | 
CSc1ccccc1C1CCN(CCC(CN(C)C(=O)c2ccccc2)c2ccc(Cl)c(Cl)c2)CC1.Cl (centres unmarked) [Example 13, N-[2-(3,4-Dichlorophenyl)-4-[4-(2-methylthiophenyl)-piperidino]butyl]-N-methylbenzamide hydrochloride] | 3 | 2.51 nM | 3/6 | 78 | 
CN(CC(CCN1CCC2(CC1)OC(=O)c1ccccc12)c1ccc(Cl)c(Cl)c1)C(=O)c1ccccc1 (centres unmarked) [Example 24, N-[2-(3,4-Dichlorophenyl)-4-(3-oxospiro[isobenzofuran-1(3H),4'-piperidin]-1'-yl)butyl]-N-methylbenzamide hydrochloride] |  |  |  |  | Ki (human NK2 receptor): 3.5 nM; Kb (guinea pig trachea; pKB (Test B)): 6.31 nM
CN(C[C@@H](CCN1CCC(c2ccccn2)CC1)c1ccc(Cl)c(Cl)c1)C(=O)c1ccccc1.Cl [Example 27, (S)-N-[2-(3,4-Dichlorophenyl)-4-[4-(2-pyridyl)piperidino]butyl]-N-methylbenzamide hydrochloride] | 2 | 12.6 nM | 2/6 | 54 | 
CC(C)Oc1cccc(CC(=O)N(C)CC(CCN2CCC(c3ccccc3)CC2)c2ccc(Cl)c(Cl)c2)c1 (centres unmarked) [N-[2-(3,4-dichlorophenyl)-4-(4-phenylpiperidino)butyl]-N-methyl-3-isopropoxyphenylacetamide] |  |  |  |  | affinity for neurokinin receptors (neurokinin receptors): high affinity
CC(=O)NC1(c2ccccc2)CCN(CC[C@H](CN(C)C(=O)c2ccccc2)c2ccc(Cl)c(Cl)c2)CC1 [SR 48968, N-[4-(4-acetylamino-4-phenylpiperidino)-2-(3,4-dichlorophenyl)butyl]-N-methylbenzamide, reference compound] |  |  |  |  | Ki [1]: 0.5 nM

Further lines, with some results ahead:

Ki (human NK2 receptor; read-out: Ki (Test A)) [nM] | Kb (guinea pig trachea; [2]) | Structure (SMILES) | number fully protected/total number tested (Test C) (NK2 receptor) | percent protection (Test C) (NK2 receptor) [%] | other results
2 | 2.51 nM | CN(C[C@@H](CCN1CCC(c2cccnc2)CC1)c1ccc(Cl)c(Cl)c1)C(=O)c1ccccc1.Cl [Example 9, (S)-N-[2-(3,4-Dichlorophenyl)-4-[4-(3-pyridyl)piperidino]butyl]-N-methylbenzamide hydrochloride] | 5/6 | 90 | 
0.3 | 0.316 nM | CN(C[C@@H](CCN1CCC(c2ccccc2[S+](C)[O-])CC1)c1ccc(Cl)c(Cl)c1)C(=O)c1ccccc1.Cl (stereo partly drawn) [Example 14, (S)-N-[2-(3,4-Dichlorophenyl)-4-[4-(2-methylsulfinylphenyl)piperidino]butyl]-N-methylbenzamide hydrochloride] | 8/8 | 100 | 
2 | 2 nM | CSc1ccc(C2CCN(CC[C@H](CN(C)C(=O)c3ccccc3)c3ccc(Cl)c(Cl)c3)CC2)cc1.Cl [Example 15, (S)-N-[2-(3,4-Dichlorophenyl)-4-[4-(4-methylthiophenyl)piperidino]butyl]-N-methylbenzamide hydrochloride] | 6/6 | 100 | 
0.6 | 6.31 nM | CN(C[C@@H](CCN1CCC(c2ccc([S+](C)[O-])cc2)CC1)c1ccc(Cl)c(Cl)c1)C(=O)c1ccccc1.Cl (stereo partly drawn) [Example 16, (S)-N-[2-(3,4-Dichlorophenyl)-4-[4-(4-methylsulfinylphenyl)piperidino]butyl]-N-methylbenzamide hydrochloride] | 5/6 | 88 | 
